Consider two molecules from patent publication US9775859B2, “Methods and compositions for preventing and treating a disease related to glycan dysregulation” (Sinai Health System, priority 2005, dated 2017).

In assay [1] the test system is CHO cells. The experiment in a line: MALDI-TOF mass spectroscopy N-glycan profile of CHO cells. Type of assay: cell-based, Chinese Hamster. The following applies: CHO cells treated with inhibitor. How it is done:
This was done as a service at the Glycotechnology core facility, a resource of the Glycobiology Research and Training Center (GRTC) at the University of California, San Diego. CD3+ murine T cells (6×10^6), resting PBMCs from human controls and MS subjects (6×10^6) and CHO cells (10×10^6) were lysed with 1% SDS in 100 mM Tris pH 7.4, dialyzed to remove SDS, digested with trypsin to generate glycopeptides and treated with PNGaseF to release the N-glycans. To focus on early processing, N-glycans were desialylated by mild acid digestion prior to permethylation and MALDI-TOF mass spectroscopy. Monoisotopic peaks in the spectra were identified using GlycanMass and GlycoMod online software, with specific targeting of the N-glycan intermediates occurring during Golgi processing.
(§1) For comparison of N-glycan profiles of mice and human MS patients, CHO cells and CHO cells deficient at 5 different steps in the N-glycan pathway (Glucosidase I, Mannosidase I, MGAT1, Mannosidase II and MGAT5, FIG. 7A) were used to define relative L-PHA and Concanavillin A (ConA) lectin staining levels by FACS along with MALDI TOF N-glycan processing profiles. […] Indeed, a human infant with severe human glucosidase I deficiency accumulates Glc3Man (885 A ion in FIG. 16A, 21C) in the urine, a 4 hexose oligomer which derives from the Glucosidase I substrate Glc3Man9GlcNAc2 via endo-mannosidase activity (70). […] Such activity would produce Man8GlcNAc2, Man7GlcNAc2 and Man6GlcNAc2 structures and allow processing by Mannosidase I/II. Indeed, N-glycans of these 3 compositions accumulate in Glucosidase I/II inhibited cells when Mannosidase I activity is blocked with DMN (69). The larger structures Glc3Man9GlcNAc2 (mass 3008) and Glc3Man7GlcNAc2 (mass 2600) were also observed (67), however they were at lower relative intensities compared to the A ion group (FIG. 21C). […] Mixing CHO and Lec1 cells in various proportions confirmed that relative differences in expression of N-glycan structures can be determined using MALDI TOF (FIG. 21G).

Assay [2] relates to PL/J and C57/B6 T cell cultures. Description: L-PHA staining of mouse CD3+ T cells stimulated with anti-CD3, FACS. Type of assay: cell-based. The settings on record: listed as SW. The protocol: Mice used for L-PHA staining and quantitative RT-PCR were sex and age matched. […] 129/Sv mice were from an original Mgat5 gene targeted population (28). All other mice (SJL, NOD, Balb/c and B10.S) were obtained from Jackson Laboratories. […] Mouse and Jurkat cells were stained with L-PHA and LEA by first blocking with PBA (2% bovine serum albumin/0.01% azide/PBS) for 10 min at 4° C. and then incubated with 4 μg/ml of L-PHA-FITC (Vector Laboratories Inc.) or 20 μg/ml of LEA-FITC (Sigma) in PBA for 40 min at 4° C. and analyzed by a BD FACSCalihur (BD Pharmingen, San Diego, Calif.). The level of lectin binding was normalized by untreated control and calculated as a percentage (Sample intensity/control intensity-1) %.
Mice used for L-PHA staining and quantitative RT-PCR were sex and age matched. […] 129/Sv mice were from the original Mgat5 gene targeted population (28). All other mice (SJL, NOD, Balb/c and B10.S) were obtained from Jackson Laboratories. Mouse cells were stained with anti-CD4 (RM4-5), anti-CD8 (53-6.7), anti-CD45R (RA3-6B2) from eBioscience, and L-PHA (4 μg/ml) and LEA (20 μg/ml) from Sigma. […] The indicated monosaccharides and/or metabolites were added daily except glucose which was added only at time zero. […] The plateau or highest non-toxic dose is shown.

For assay [3] the test system is unchanged. Description: CFSE proliferation of mouse CD3+ T cells stimulated with anti-CD3. In kind it is cell-based. The settings on record: wild type PL/J and C57/B6 T cells.
Assay [4] concerns CHO cells. Description: L-PHA and ConA lectin staining of CHO cells by FACS. Type of assay: cell-based, Chinese Hamster. The following applies: CHO cells treated with inhibitor.
Excerpt: as §1

For assay [5], the system named is MGAT4. The settings on record: read-out: Km for UDP-GlcNAc; cited from earlier work.
The target of assay [6] is T1, MGAT1 (Homo sapiens, UniProt P26572).
T1 sequence (P26572 1-445): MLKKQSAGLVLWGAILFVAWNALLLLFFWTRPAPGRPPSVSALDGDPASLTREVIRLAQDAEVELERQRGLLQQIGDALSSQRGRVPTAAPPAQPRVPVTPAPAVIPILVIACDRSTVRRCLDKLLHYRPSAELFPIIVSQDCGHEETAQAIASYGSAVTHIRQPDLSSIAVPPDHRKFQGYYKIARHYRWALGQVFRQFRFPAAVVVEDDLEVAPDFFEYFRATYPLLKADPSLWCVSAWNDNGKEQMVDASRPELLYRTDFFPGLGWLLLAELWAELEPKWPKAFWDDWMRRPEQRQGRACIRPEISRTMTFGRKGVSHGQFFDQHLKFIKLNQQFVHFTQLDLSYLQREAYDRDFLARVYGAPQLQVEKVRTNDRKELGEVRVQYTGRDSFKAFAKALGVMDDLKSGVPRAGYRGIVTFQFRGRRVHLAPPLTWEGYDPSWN
The following applies: read-out: Km for UDP-GlcNAc; cited from earlier work.

In assay [7] the test system is UDP-GlcNAc/UMP transporter. The settings on record: UDP-GlcNAc/UMP transport, model parameter; cited from earlier work.
Assay [8] has as its target T2, MGAT2 (Homo sapiens, UniProt Q10469).
T2 sequence (Q10469 1-447): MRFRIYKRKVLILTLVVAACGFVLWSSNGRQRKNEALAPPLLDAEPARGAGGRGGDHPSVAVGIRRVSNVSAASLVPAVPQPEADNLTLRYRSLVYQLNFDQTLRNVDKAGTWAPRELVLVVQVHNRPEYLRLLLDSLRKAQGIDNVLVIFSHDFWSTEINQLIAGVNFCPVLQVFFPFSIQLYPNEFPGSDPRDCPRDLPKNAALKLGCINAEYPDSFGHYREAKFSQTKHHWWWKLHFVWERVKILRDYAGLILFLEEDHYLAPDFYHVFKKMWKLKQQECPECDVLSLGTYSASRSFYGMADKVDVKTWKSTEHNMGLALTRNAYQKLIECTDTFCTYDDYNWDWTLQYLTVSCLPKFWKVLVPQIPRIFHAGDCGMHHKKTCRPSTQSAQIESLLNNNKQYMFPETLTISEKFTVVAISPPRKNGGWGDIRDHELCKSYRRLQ
The following applies: read-out: Km for UDP-GlcNAc; cited from earlier work.

Assay [9] deals with T3, MGAT5 enzyme (Homo sapiens, UniProt Q09328).
T3 sequence (Q09328 1-741): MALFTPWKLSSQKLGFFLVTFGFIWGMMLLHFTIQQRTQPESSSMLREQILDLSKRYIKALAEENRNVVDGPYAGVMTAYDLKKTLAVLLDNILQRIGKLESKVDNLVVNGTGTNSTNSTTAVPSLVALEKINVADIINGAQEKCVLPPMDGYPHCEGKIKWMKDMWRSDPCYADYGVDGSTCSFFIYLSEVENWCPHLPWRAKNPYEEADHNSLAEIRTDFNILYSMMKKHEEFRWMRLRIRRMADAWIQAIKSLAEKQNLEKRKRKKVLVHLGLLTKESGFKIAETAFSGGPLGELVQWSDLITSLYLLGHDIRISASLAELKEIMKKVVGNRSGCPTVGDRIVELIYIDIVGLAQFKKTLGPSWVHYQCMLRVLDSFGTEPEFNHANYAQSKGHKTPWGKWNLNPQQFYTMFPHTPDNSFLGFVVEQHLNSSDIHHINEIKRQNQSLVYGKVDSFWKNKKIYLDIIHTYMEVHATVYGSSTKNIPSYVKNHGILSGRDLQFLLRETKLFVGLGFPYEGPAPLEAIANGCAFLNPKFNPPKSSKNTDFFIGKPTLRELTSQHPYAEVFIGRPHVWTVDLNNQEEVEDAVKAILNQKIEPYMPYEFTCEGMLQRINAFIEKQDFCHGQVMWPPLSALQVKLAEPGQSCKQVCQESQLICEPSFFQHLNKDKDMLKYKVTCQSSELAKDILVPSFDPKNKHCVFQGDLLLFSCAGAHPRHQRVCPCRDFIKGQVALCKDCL
The settings on record: read-out: Km for UDP-GlcNAc; cited from earlier work.

The term Km denotes the substrate concentration at which the rate is half of its maximum.

SMILES strings stand for the structures. Where “and” joins values, the source holds several entries; their conditions need not be identical. Identical values can stand only once. Entries after “also recorded” stand apart in the source; their conditions may differ.

For the molecule `O[C@H]1[C@H]2[C@H](O)CCCN2C[C@H]1O` [swainsonine], in [1], the “MALDI TOF profile of N-glycans (accumulated structures)” value is on record as “accumulation of hybrid structures” and the “β1,6GlcNAc-branched tetra-antennary N-glycans (mass 2969, structure G)” value is on record as “absent”. Besides, the “up-regulation of β1,6 GlcNAc branched N-glycans following stimulation” value in assay [2] (anti-CD3, minimal concentrations) was “significantly attenuated”. In [2] (minimal concentrations), the “resting levels of β1,6 GlcNAc branched N-glycans” value is “without affecting; also recorded: do not affect”. For the same molecule, in [3], the “reversal of supplement effect on proliferation by blocking Mgat5 N-glycan expression” value is given as “reversed”. In assay [4], the “high-mannose structures as seen by ConA staining” value is on record as “increased” and the “β1,6GlcNAc-branched N-glycan expression by L-PHA staining” value is on record as “dramatic reductions”.
Regarding `CC(=O)N[C@H]1[C@@H](OP(=O)(O)OP(=O)(O)OC[C@H]2O[C@@H](n3ccc(=O)[nH]c3=O)[C@H](O)[C@@H]2O)O[C@H](CO)[C@@H](O)[C@@H]1O` [UDP-GlcNAc, UDP-N-acetylglucosamine], the Km is roughly 5 mM in assay [5]; 0.04 mM in assay [6]; 0.00713 mM in [7]; 0.9 mM in assay [8]; ~10 mM and ~11 mM and 11 mM in assay [9].
